These are literature values, as cited in US20120040895A1, “PEPTIDE AVAILABILITY” (priority 2008, published 2012).

Structures are written as SMILES.

`CC[C@H](C)[C@H](N)C(=O)N1CCC[C@H]1C(=O)N1CCC[C@H]1C(=O)O` [IPP, Isoleucine-Proline-Proline]: the “Further increase of AUC when consumed with the meal” value (yoghurt drink consumed with breakfast, versus fasted state) is recorded as 30%. Besides, the “Increase of plasma IPP level (area under the concentration vs. time curve) compared to a control drink” value (yoghurt drink drunk in overnight fasted state 30 min prior to breakfast) was “more than two-fold”.
